Results from paper PMC5856786, “A DHODH inhibitor increases p53 synthesis and enhances tumor cell killing by p53 degradation blockage” (Nature Communications, 2018).
Blank lines part the entries; values can stand above or below the compound they belong to.

How the values were obtained:
recombinant human DHODH [1] = biological target: T1, recombinant human DHODH (Homo sapiens, UniProt Q02127); assay: Kinetic DHODH enzyme assay (3,4-dimethoxy-5-methyl-p-benzoquinone, DCIP); assay type: biochemical; parameters: made in house; settings: Fig. 5a; average of three independent repeats ± SD
Protocol: In Fig. 5a enzyme assays were optimized and performed with 6 nM recombinant human DHODH prepared as described. The reaction mixture for these kinetic assays consisted of 1 mM DL-dihydroorotic acid, 100 µM 3,4-dimethoxy-5-methyl-p-benzoquinone (#D9150, Sigma-Aldrich), and 100 µM DCIP in enzyme buffer. A stock solution of 20 mM DCIP was prepared in enzyme buffer and filtered through filter paper (20–25 μm pore size) just before use. Loss in absorbance by DCIP was measured at 595 nm at RT in a stepped time course (8 × 2 min, 8 × 3 min, 6 × 5 min). […] Therefore, for each concentration of inhibitor tested, a value for DHODH’s Vmax was estimated by linear regression within this time frame.
Target sequence in this assay (Q02127 29-395 limits assumed): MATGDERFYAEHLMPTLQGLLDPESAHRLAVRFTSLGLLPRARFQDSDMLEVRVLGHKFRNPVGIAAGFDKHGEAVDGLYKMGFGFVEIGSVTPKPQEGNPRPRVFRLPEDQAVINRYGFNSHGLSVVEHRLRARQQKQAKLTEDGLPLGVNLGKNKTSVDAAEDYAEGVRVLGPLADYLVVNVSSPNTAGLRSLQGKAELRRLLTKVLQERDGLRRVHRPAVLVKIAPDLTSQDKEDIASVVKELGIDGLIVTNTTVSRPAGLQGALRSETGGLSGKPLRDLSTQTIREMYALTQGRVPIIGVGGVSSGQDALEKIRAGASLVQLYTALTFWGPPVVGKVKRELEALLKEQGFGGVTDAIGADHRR

ARN8 cells = assay: SRB growth/viability assay, ARN8; assay type: cell-based, human; settings: ARN8; Fig. 4e
Protocol: SRB assays measuring protein content were performed in 96-well plates as previously described.

recombinant human DHODH [2] = biological target: T1, recombinant human DHODH; assay: Endpoint DHODH enzyme assay (coenzyme Q10, DCIP); assay type: biochemical; parameters: purchased Prospecbio ENZ-642; settings: compound at 10 µM; Supplementary Table 5, 20,000 compound library
Protocol: In Supplementary Tables 5 and 6, endpoint assays were performed with 10 nM recombinant human DHODH (#ENZ-642, Prospecbio). The reaction mixture consisted of 624.6 µM DL-dihydroorotic acid, 66.4 µM coenzyme Q10, 66.4 µM 2,6-dichlorophenolindophenol sodium salt (DCIP) (all reagents purchased from Sigma-Aldrich) in enzyme buffer (50 mM Tris-HCl, pH 8.0, 0.1% Triton X-100, 150 mM KCl). Loss in absorbance by DCIP was measured at 595 nm after incubation at RT for 60 min.
Target sequence in this assay (Q02127 31-395 limits assumed): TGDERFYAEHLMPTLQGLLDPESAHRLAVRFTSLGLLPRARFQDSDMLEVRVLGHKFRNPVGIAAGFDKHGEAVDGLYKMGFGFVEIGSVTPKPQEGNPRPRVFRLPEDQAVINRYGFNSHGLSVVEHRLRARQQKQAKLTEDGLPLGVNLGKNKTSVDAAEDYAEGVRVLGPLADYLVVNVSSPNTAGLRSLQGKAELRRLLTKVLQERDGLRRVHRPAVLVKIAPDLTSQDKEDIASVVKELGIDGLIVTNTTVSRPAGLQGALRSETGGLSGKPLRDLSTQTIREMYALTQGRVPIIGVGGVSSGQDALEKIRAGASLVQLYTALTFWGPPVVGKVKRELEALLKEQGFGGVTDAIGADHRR

Compound: O=C(N[C@H]1CCCc2c1cnn2-c1ccccc1F)c1onc2c1CCCC2 [(S)-HZ05]
- IC50 (recombinant human DHODH [1]): 6.7 ± 0.67 µM

Compound: Cc1ccc(-n2ncc3c2CC(C)(C)CC3NC(=O)c2ccccn2)cc1 (stereo not drawn) [HZ25]
- IC50 (recombinant human DHODH [1]): > 10 µM

Compound: Cc1c(-c2ccc(-c3ccccc3F)cc2)nc2ccc(F)cc2c1C(=O)O [brequinar, reference compound]
- effects on ARN8 growth and p53-dependent transcription ± uridine compared with HZ00 (ARN8 cells): phenocopied the effects of HZ00

Compound: CC(C)c1nc(C(=O)N2CCC3(CCCN(CCc4ccccc4)C3)C2)cs1 (stereo not drawn) [compound 51157786, 2-[(2-isopropyl-1,3-thiazol-4-yl)carbonyl]-7-(2-phenylethyl)-2,7-diazaspiro[4.5]decane]
- remaining activity at 10 µM (recombinant human DHODH [2]): -5.48%

Compound: Cc1ccccc1-c1noc(-c2ccc(N3CCC[C@H]3CO)nc2)n1 [compound 54631106, ((2S)-1-{5-[3-(2-methylphenyl)-1,2,4-oxadiazol-5-yl]-2-pyridinyl}-2-pyrrolidinyl)methanol]
- remaining DHODH activity (%) Average (recombinant human DHODH [2]): 5.94%

Compound: CCC(C)Nc1ccc(-c2nc(-c3cccc(OC)c3OC)no2)cn1 (stereo not drawn) [compound 55410102, N-(sec-butyl)-5-[3-(2,3-dimethoxyphenyl)-1,2,4-oxadiazol-5-yl]-2-pyridinamine]
- remaining activity at 10 µM (recombinant human DHODH [2]): 2.28%

Compound: CCN(CC)c1ccc(-c2nc(-c3cccc(OC)c3OC)no2)cn1 [compound 57235883, 5-[3-(2,3-dimethoxyphenyl)-1,2,4-oxadiazol-5-yl]-N,N-diethyl-2-pyridinamine]
- remaining activity at 10 µM (recombinant human DHODH [2]): 9.4%

Compound: COc1ccc(C2c3[nH]c4ccccc4c3CCN2Cc2ccoc2)c(F)c1 (stereo not drawn) [compound 76026685, 1-(2-fluoro-4-methoxyphenyl)-2-(3-furylmethyl)-2,3,4,9-tetrahydro-1H-beta-carboline]
- remaining activity at 10 µM (recombinant human DHODH [2]): 88.5%

Compound: COc1ccc(C2c3[nH]c4ccccc4c3CCN2Cc2nccs2)cc1C (stereo not drawn) [compound 90739158, 1-(4-methoxy-3-methylphenyl)-2-(1,3-thiazol-2-ylmethyl)-2,3,4,9-tetrahydro-1H-beta-carboline]
- remaining DHODH activity (%) Average (recombinant human DHODH [2]): 91.88%

Compound: C/C(O)=C(\C#N)C(=O)Nc1ccc(C(F)(F)F)cc1 [teriflunomide, reference compound]
- effects on ARN8 growth and p53-dependent transcription ± uridine compared with HZ00 (ARN8 cells): phenocopied the effects of HZ00

Other lines, results leading:

- IC50 (recombinant human DHODH [1]): 0.289 ± 0.046 µM
Compound: O=C(NC1CCCc2c1cnn2-c1ccc(F)cc1F)c1onc2c1CCCC2 (stereo not drawn) [HZ02]

- remaining activity at 10 µM (recombinant human DHODH [2]): 86.3%
Compound: Cc1ccc(-c2nc(CN3CCCCC3c3nccs3)c(C)o2)o1 (stereo not drawn) [compound 47561416, 1-{[5-methyl-2-(5-methyl-2-furyl)-1,3-oxazol-4-yl]methyl}-2-(1,3-thiazol-2-yl)piperidine]

- remaining DHODH activity (%) Average (recombinant human DHODH [2]): 10.68%
Compound: COc1ccc(-c2nc(CN3CCCC3c3ccccc3OC)c(C)o2)cc1C (stereo not drawn) [compound 47870602, 2-(4-methoxy-3-methylphenyl)-4-{[2-(2-methoxyphenyl)-1-pyrrolidinyl]methyl}-5-methyl-1,3-oxazole]

- remaining activity at 10 µM (recombinant human DHODH [2]): 16.7%
Compound: COc1cccc(-c2noc(-c3ccc(N4CCCCC4)nc3)n2)c1OC [compound 57999135, 5-[3-(2,3-dimethoxyphenyl)-1,2,4-oxadiazol-5-yl]-2-(1-piperidinyl)pyridine]

- remaining activity at 10 µM (recombinant human DHODH [2]): 42.3%
Compound: COc1cccc(-c2noc(-c3ccc(N4CCCC(O)C4)nc3)n2)c1OC (stereo not drawn) [compound 78928129, 1-{5-[3-(2,3-dimethoxyphenyl)-1,2,4-oxadiazol-5-yl]-2-pyridinyl}-3-piperidinol]
